Reference: patent US8642629B2, “Naphthylacetic acids” (Hoffmann-La Roche Inc., priority 2008, dated 2014)

target: T1, human CRTH2 (Homo sapiens, UniProt Q9Y5Y4); test: Human CRTH2 Receptor Binding Assay (whole cell, [3H]ramatroban competition); conditions: CHO-K1 cells expressing human CRTH2 and G-alpha16; 20 nM [3H]ramatroban; 1 hour, room temperature
T1 construct: expressed in transfected cells; host or cells: CHO-K1
T1 sequence (Q9Y5Y4 1-395): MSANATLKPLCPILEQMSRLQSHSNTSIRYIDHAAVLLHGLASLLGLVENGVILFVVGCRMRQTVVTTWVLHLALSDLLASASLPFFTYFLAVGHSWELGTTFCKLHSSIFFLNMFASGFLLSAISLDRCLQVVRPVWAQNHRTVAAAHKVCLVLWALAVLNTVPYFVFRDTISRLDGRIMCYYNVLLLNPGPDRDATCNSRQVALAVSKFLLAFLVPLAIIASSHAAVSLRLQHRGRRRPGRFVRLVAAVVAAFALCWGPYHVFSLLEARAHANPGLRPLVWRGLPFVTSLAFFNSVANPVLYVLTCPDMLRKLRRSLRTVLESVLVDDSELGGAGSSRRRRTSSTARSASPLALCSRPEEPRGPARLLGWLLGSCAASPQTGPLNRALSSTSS
Excerpt: A whole cell receptor binding assay using [^3H]ramatroban as the competing radioactive ligand was employed to evaluate the compound binding activity to human CRTH2. The radioactive ligand [^3H]ramatroban was synthesized according to Sugimoto et. al. (Eur. J. Pharmacol. 524, 30-37, 2005) to a specific activity of 42 Ci/mmol.
A cell line stably expressing human CRTH2 was established by transfecting CHO-K1 cells with two mammalian expression vectors that harbored human CRTH2 and G-alpha16 cDNAs, respectively, using FuGene® 6 transfection reagent (from Roche). Stable clones expressing CRTH2 were selected by staining each clone with BM16 (BD Pharmingen™ from BD Biosciences, a division of Becton, Dickinson and Company), which is a rat monoclonal antibody to human CRTH2. The cells were maintained as monolayer cultures in Ham's F-12 medium containing 10% fetal bovine serum, 100 units/mL penicillin, 100 μg/mL streptomycin, 2 mM glutamine, 0.5 mg/mL G418 (geneticin) for CRTH2, and 0.2 mg/mL hygromycin-B (for G-alpha 16). For whole cell receptor binding assay, the monolayer cells were rinsed once with PBS (phosphate buffered saline), dissociated using ethylenediaminetetraacetate (Versene™ EDTA from Lonza Inc.), and suspended in PBS containing 10 mM MgCl2 and 0.06% BSA (bovine serum albumin) at 1.5×10^6 cells/mL.
The binding reactions (0.2 mL) were performed in 96-well plates at room temperature in PBS containing 1.5×10^5 cells, 10 mM MgCl2, 0.06% BSA, 20 nM [^3H]ramatroban, and test compound at various concentrations. After 1 hour of binding reactions, the cells were harvested on GF™/B filter microplates (microtiter plates with embedded glass fiber from PerkinElmer, Inc.) and washed 5 times with PBS using a Filtermate™ Harvester (a cell harvester that harvests and washes cells from microplates from PerkinElmer, Inc.). The radioactivities bound to the cells were determined using a microplate scintillation counter (TopCount® NXT, from PerkinElmer, Inc.) after adding 50 μL of Microscint™ 20 scintillation fluid (from PerkinElmer, Inc.) to each well of the filter plates. The radioactivity from non-specific binding was determined by replacing compound with 10 μM of 15(R)-15-methyl PGD2 (from Cayman Chemical Company) in the reaction mixtures. The radioactivity bound to the cells in the absence of compound (total binding) was determined by replacing compound with 0.25% of DMSO (dimethyl sulfoxide) in the reaction mixture. Specific binding data were obtained by subtracting the radioactivity of non-specific binding from each binding data.
The IC50 value is defined as the concentration of the tested compound that is required for 50% inhibition of total specific binding. In order to calculate the IC50 value, the percent inhibition data were determined for 7 concentrations for each compound. The percent inhibition for a compound at each concentration was calculated according to the following formula, [1−(specific binding in the presence of compound)/(total specific binding)]×100. The IC50 value was then obtained by fitting the percent inhibition data to a sigmoidal dose-response (4 parameter logistic) model in the XLfit® software Excel add-in program [from ID Business Solutions Ltd., model 205, where F(x)=(A+(B−A)/(1+((C/x)^D)))].

IC50 [nM] | SMILES
3.5 | Cc1cc(Oc2cc(CC(=O)O)cc3ccc(F)cc23)ccc1S(C)(=O)=O [Example 1-7, [6-fluoro-4-(4-methanesulfonyl-3-methyl-phenoxy)-naphthalen-2-yl]-acetic acid]
4.7 | Cc1c(CC(=O)O)cc2ccccc2c1Oc1ccc(S(C)(=O)=O)cc1 [Example 3-2, [4-(4-methanesulfonyl-phenoxy)-3-methyl-naphthalen-2-yl]-acetic acid]
5 | Cc1c(CC(=O)O)cc2ccc(F)cc2c1Oc1ccc(S(=O)(=O)c2ccccc2)cc1 [Example 2-28, [4-(4-benzenesulfonyl-phenoxy)-6-fluoro-3-methyl-naphthalen-2-yl]-acetic acid]
134 | Cc1c(CC(=O)O)cc2ccc(Cl)cc2c1Oc1ccc(C#N)cc1 [Example 2-45, [6-chloro-4-(4-cyano-phenoxy)-3-methyl-naphthalen-2-yl]-acetic acid]
32.1 | CCS(=O)(=O)c1ccc(Oc2cc(CC(=O)O)c(C)c3ccc(F)cc23)nc1 [Example 6-1, [4-(5-ethanesulfonyl-pyridin-2-yloxy)-6-fluoro-1-methyl-naphthalen-2-yl]-acetic acid]
4.7 | CCS(=O)(=O)c1ccc(Oc2cc(CC(=O)O)cc3ccc(OC)cc23)nc1 [Example 1-21, [4-(5-Ethanesulfonyl-pyridin-2-yloxy)-6-methoxy-naphthalen-2-yl]-acetic acid]
378 | CCS(=O)(=O)c1ccc(Oc2c(C)c(C(C)C(=O)O)cc3ccc(F)cc23)nc1 (centres unmarked) [Example 22-1, 2-[4-(5-Ethanesulfonyl-pyridin-2-yloxy)-6-fluoro-3-methyl-naphthalen-2-yl]-propionic acid]
2.9 | Cc1c(CC(=O)O)cc2ccc(F)cc2c1Oc1ccc(S(=O)(=O)N2CCC(F)(F)CC2)cc1 [Example 2-42, {4-[4-(4,4-difluoro-piperidine-1-sulfonyl)-phenoxy]-6-fluoro-3-methyl-naphthalen-2-yl}-acetic acid]
3 | Cc1c(CC(=O)O)cc2ccc(F)cc2c1Oc1ccc(S(C)(=O)=O)c(Cl)c1 [Example 2-11, [4-(3-chloro-4-methanesulfonyl-phenoxy)-6-fluoro-3-methyl-naphthalen-2-yl]-acetic acid]
2.5 | CCS(=O)(=O)c1cnc(Oc2cc(CC(=O)O)cc3ccc(F)cc23)c(C)c1 [Example 1-12, [4-(5-ethanesulfonyl-3-methyl-pyridin-2-yloxy)-6-fluoro-naphthalen-2-yl]-acetic acid]
2.4 | CCCS(=O)(=O)c1ccc(Oc2c(C)c(CC(=O)O)cc3ccc(F)cc23)cc1 [Example 2-22, {6-fluoro-3-methyl-4-[4-(propane-1-sulfonyl)-phenoxy]-naphthalen-2-yl}-acetic acid]
3.3 | Cc1cc(S(C)(=O)=O)cnc1Oc1cc(CC(=O)O)cc2ccc(F)cc12 [Example 1-10, [6-fluoro-4-(5-methanesulfonyl-3-methyl-pyridin-2-yloxy)-naphthalen-2-yl]-acetic acid]
3.6 | Cc1c(CC(=O)O)cc2ccc(F)cc2c1Oc1ccc(S(=O)(=O)c2ccc(Cl)cc2)cc1 [Example 2-31, {4-[4-(4-chloro-benzenesulfonyl)-phenoxy]-6-fluoro-3-methyl-naphthalen-2-yl}-acetic acid]
2.7 | Cc1cc(S(C)(=O)=O)ccc1Oc1c(C)c(CC(=O)O)cc2ccc(Cl)cc12 [Example 2-9, [6-chloro-4-(4-methanesulfonyl-2-methyl-phenoxy)-3-methyl-naphthalen-2-yl]-acetic acid]
8.5 | CS(=O)(=O)c1ccc(Oc2cc(CC(=O)O)cc3ccc(Cl)cc23)cc1 [Example 1-3, [6-chloro-4-(4-methanesulfonyl-phenoxy)-naphthalen-2-yl]-acetic acid]
2.6 | CCS(=O)(=O)c1ccc(Oc2cc(CC(=O)O)cc3ccc(OC(F)(F)F)cc23)nc1 [Example 1-18, [4-(5-Ethanesulfonyl-pyridin-2-yloxy)-6-trifluoromethoxy-naphthalen-2-yl]-acetic acid]
7.5 | Cc1cc(S(C)(=O)=O)ccc1Oc1c(C)c(CC(=O)O)cc2ccc(F)cc12 [Example 2-3, [6-fluoro-4-(4-methanesulfonyl-2-methyl-phenoxy)-3-methyl-naphthalen-2-yl]-acetic acid]
2.1 | CCCCS(=O)(=O)c1ccc(Oc2c(C)c(CC(=O)O)cc3ccc(F)cc23)cc1 [Example 2-23, {4-[4-(butane-1-sulfonyl)-phenoxy]-6-fluoro-3-methyl-naphthalen-2-yl}-acetic acid]
12.4 | C=Cc1c(CC(=O)O)cc2ccc(F)cc2c1Oc1ccc(S(=O)(=O)CC)cn1 [Example 17-1, [4-(5-Ethanesulfonyl-pyridin-2-yloxy)-6-fluoro-3-vinyl-naphthalen-2-yl]-acetic acid]
10.3 | CS(=O)(=O)c1ccc([S+]([O-])c2cc(CC(=O)O)cc3ccc(F)cc23)cc1 (centres unmarked) [Example 10-1, [6-fluoro-4-(4-methanesulfonyl-benzenesulfinyl)-naphthalen-2-yl]-acetic acid]
2.8 | CCS(=O)(=O)c1cnc(Oc2c(C)c(CC(=O)O)cc3ccc(F)cc23)c(C2CC2)c1 [Example 21-1, [4-(3-Cyclopropyl-5-ethanesulfonyl-pyridin-2-yloxy)-6-fluoro-3-methyl-naphthalen-2-yl]-acetic acid]
7.9 | CS(=O)(=O)c1ccc(Oc2cc(CC(=O)O)c(F)c3ccc(F)cc23)nc1 [Example 4-1, [1,6-difluoro-4-(5-methanesulfonyl-pyridin-2-yloxy)-naphthalen-2-yl]-acetic acid]
3.3 | CS(=O)(=O)c1ccc(Nc2cc(CC(=O)O)cc3ccc(F)cc23)cc1 [Example 8-1, [6-fluoro-4-(4-methanesulfonyl-phenylamino)-naphthalen-2-yl]-acetic acid]
2.9 | CCc1cc(S(=O)(=O)CC)cnc1Oc1c(C)c(CC(=O)O)cc2ccc(F)cc12 [Example 20-1, [4-(5-Ethanesulfonyl-3-ethyl-pyridin-2-yloxy)-6-fluoro-3-methyl-naphthalen-2-yl]-acetic acid]
2.6 | CCS(=O)(=O)c1ccc(Oc2cc(CC(=O)O)cc3ccc(OC(F)(F)F)cc23)cc1 [Example 1-19, [4-(4-Ethanesulfonyl-phenoxy)-6-trifluoromethoxy-naphthalen-2-yl]-acetic acid]
2.3 | CCS(=O)(=O)c1cnc(Oc2cc(CC(=O)O)cc3ccc(F)cc23)c(Br)c1 [Example 1-13, [4-(3-bromo-5-ethanesulfonyl-pyridin-2-yloxy)-6-fluoro-naphthalen-2-yl]-acetic acid]
2.7 | COc1ccc(S(=O)(=O)c2ccc(Oc3c(C)c(CC(=O)O)cc4ccc(F)cc34)cc2)cc1 [Example 2-30, {6-fluoro-4-[4-(4-methoxy-benzenesulfonyl)-phenoxy]-3-methyl-naphthalen-2-yl}-acetic acid]
2.6 | Cc1c(CC(=O)O)cc2ccc(F)cc2c1Nc1ccc(S(C)(=O)=O)cc1 [Example 8-2, [6-fluoro-4-(4-methanesulfonyl-phenylamino)-3-methyl-naphthalen-2-yl]-acetic acid]
12.4 | CCS(=O)(=O)c1ccc(Oc2c(C)c(CC(=O)O)cc3ccc(F)cc23)cc1Cl [Example 2-19, [4-(3-chloro-4-ethanesulfonyl-phenoxy)-6-fluoro-3-methyl-naphthalen-2-yl]-acetic acid]
